Like-named read-outs stand apart in the source and are kept apart here.

Assay [1] concerns the target recombinant human Mcl-1 (residues 171-327) / Bim interaction (Homo sapiens (Human), UniProt Q07820). Put plainly: biochemical. It counts as binding.
The test system of assay [2] is human multiple myeloma cell line, OPM-2. The assay can be described thus: Cell viability assay (OPM-2 10 FBS), CellTiter-Glo. It counts as cell-based. The essentials:
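Serially diluted test compounds are incubated 16 h with cells (3000/well) in RPMI 1640 supplemented with 10% FBS. Viability is then measured by luminescence and IC50 calculated by 4-parameter logistic fit.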

Where [3] appears, read: 0.1 nM Mcl-1(171-327), 0.05 nM biotin-Bim (51-76), read-out: Mcl-1 HTRF IC50.
Setting [4] is: Homo sapiens, OPM-2, 16 h, read-out: OPM-2 10% FBS IC50 IP, OPM-2 cells, 10% FBS, 16 h incubation.
Where [5] appears, read: TR-FRET, Mcl-1(171-327) / biotin-Bim (51-76), read-out: Mcl-1 HTRF IC50.
Where [6] appears, read: Homo sapiens, OPM-2, 16 h, read-out: OPM-2 10% FBS IC50 IP, OPM-2 cells, 10% FBS, 16 h, CellTiter-Glo.
[7] abbreviates: read-out: OPM-2 10% FBS IC50 IP, OPM-2 cells, 10% FBS, 16 h incubation.
Setting [8] is: read-out: OPM-2 10% FBS IC50 IP, OPM-2 cells, 10% FBS, 16 h, CellTiter-Glo.

Sequence of recombinant human Mcl-1 (residues 171-327) / Bim interaction (Q07820 171-327): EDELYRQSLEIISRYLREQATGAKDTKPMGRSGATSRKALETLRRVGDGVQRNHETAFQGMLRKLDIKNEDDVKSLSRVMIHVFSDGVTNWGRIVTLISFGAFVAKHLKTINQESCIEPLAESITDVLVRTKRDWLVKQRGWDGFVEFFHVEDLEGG

Regarding `CO[C@]1(CN2CCN3C[C@H](C)OC[C@@H]3C2)/C=C/C[C@H](C)[C@@H](C)S(=O)(=O)NC(=O)c2ccc3c(c2)N(C[C@@H]2CC[C@H]21)C[C@@]1(CCCc2cc(Cl)ccc21)CO3` [Example 146, (1S,3′R,6′R,7′R,8′E,11′S,12′R)-6-chloro-7′-methoxy-11′,12′-dimethyl-7′-(((3S,9aS)-3-methylhexahydropyrazino[2,1-c][1,4]oxazin-8(1H)-yl)methyl)-3,4-dihydro-2H,15′H-spiro[naphthalene-1,22′-[20]oxa[13]thia[1,14]diazatetracyclo [14.7.2.0~3,6~.0~19,24~]pentacosa[8,16,18,24]tetraen]-15′-one 13′,13′-dioxide], the values for the half-maximal inhibitory concentration (IC50) in assay [1] (setting [3]) and in assay [2] (setting [4]) were 0.337 nM and 150 nM, respectively.
On to `C[C@@H]1[C@@H](C)CCC[C@@](O)(CC(=O)N2CCOCC2)[C@@H]2CC[C@H]2CN2C[C@@]3(CCCc4cc(Cl)ccc43)COc3ccc(cc32)C(=O)NS1(=O)=O` [Example 100086, (1S,3′R,6′R,7′R,11′S,12′R)-6-chloro-7′-hydroxy-11′,12′-dimethyl-7′-(2-(4-morpholinyl)-2-oxoethyl)-3,4-dihydro-2H,15′H-spiro[naphthalene-1,22′-[20]oxa[13]thia[1,14]diazatetracyclo [14.7.2.0~3,6~.0~19,24~]pentacosa[16,18,24]trien]-15′-one 13′,13′-dioxide], for which the half-maximal inhibitory concentration (IC50) (as a rule, the concentration that gives 50% inhibition) in assay [1] (setting [5]) turned out to be 0.537 nM; in assay [2] (setting [6]), 390 nM.
In the same order, the values of `C[C@@H]1[C@@H](C)CCC[C@](O)(CC(=O)Nc2ccncn2)[C@@H]2CC[C@H]2CN2C[C@@]3(CCCc4cc(Cl)ccc43)COc3ccc(cc32)C(=O)NS1(=O)=O` [Example 100174, 2-((1S,3′R,6′R,7′S,11′S,12′R)-6-chloro-7′-hydroxy-11′,12′-dimethyl-13′,13′-dioxido-15′-oxo-3,4-dihydro-2H-spiro[naphthalene-1,22′-[20]oxa[13]thia[1,14]diazatetracyclo [14.7.2.0~3,6~.0~19,24~]pentacosa[16,18,24]trien]-7′-yl)-N-4-pyrimidinylacetamide] are 2.02 nM and 1910 nM.
Regarding `CO[C@@]1(CN2CCN3CC[C@H](F)C[C@@H]3C2)/C=C/C[C@H](C)[C@@H](C)S(=O)(=O)NC(=O)c2ccc3c(c2)N(C[C@@H]2CC[C@H]21)C[C@@]1(CCCc2cc(Cl)ccc21)CO3` [Example 274], the concentration for half-maximal inhibition (IC50) in assay [1] (setting [3]) came to 0.285 nM; in assay [2] (setting [7]), 232 nM.
`C[C@@H]1[C@@H](C)C/C=C/[C@](C)(O)[C@@H]2CC[C@H]2CN2C[C@@]3(CCCc4cc(Cl)ccc43)COc3ccc(cc32)C(=O)NS1(=O)=O` [Example 100016, (1S,3′R,6′R,7′S,8′E,11′S, 12′R)-6-chloro-7′-hydroxy-7′,11′,12′-trimethyl-3,4-dihydro-2H,15′H-spiro[naphthalene-1,22′-[20]oxa[13]thia[1,14]diazatetracyclo[14.7.2.0-3,6˜.0˜19,24˜]pentacosa[8,16,18,24]tetraen]-15′-one 13′,13′-dioxide]: the values for the half-inhibitory concentration (IC50) in assay [1] (Mcl-1 HTRF IC50) and in assay [2] (setting [6]) were 0.182 nM and 132 nM, respectively.
On to `CCO[C@]1(CN2CCN(C(C)(C)C)CC2)/C=C/C[C@H](C)[C@@H](CCOC)S(=O)(=O)NC(=O)c2ccc3c(c2)N(C[C@@H]2CC[C@H]21)C[C@@]1(CCCc2cc(Cl)ccc21)CO3` [Example 190, (1S,3′R,6′R,7′R,8′E,11′S,12′R)-7′-((4-tert-butyl-1-piperazinyl)methyl)-6-chloro-7′-ethoxy-12′-(2-methoxyethyl)-11′-methyl-3,4-dihydro-2H,15′H-spiro[naphthalene-1,22′-[20]oxa[13]thia[1,14]diazatetracyclo [14.7.2.0~3,6~.0~19,24~]pentacosa[8,16,18,24]tetraen]-15′-one 13′,13′-dioxide], for which the values for the IC50 in assay [1] (setting [3]) and in assay [2] (setting [4]) were 0.087 nM and 53 nM, respectively.
With `C[C@@H]1[C@@H](C)C/C=C/[C@@](O)(c2ccc(F)nc2)[C@@H]2CC[C@H]2CN2C[C@@]3(CCCc4cc(Cl)ccc43)COc3ccc(cc32)C(=O)NS1(=O)=O` (single isomer, unassigned) [Example 100530], the half-maximal inhibitory concentration (IC50) is 0.171 nM in assay [1] (setting [5]) and 448 nM in assay [2] (setting [8]).
Regarding `CO[C@@]1(CC(=O)N2CCN(C)C[C@H]2C)/C=C/C[C@H](C)[C@@H](C)S(=O)(=O)NC(=O)c2ccc3c(c2)N(C[C@@H]2CC[C@H]21)C[C@@]1(CCCc2cc(Cl)ccc21)CO3` (single isomer, unassigned) [Example 100480], the half-maximal inhibitory concentration (IC50) was determined as 0.176 nM in assay [1] (setting [5]) and 221 nM in assay [2] (setting [8]).
As to `CO[C@@]1([C@@H](C)O)/C=C/C[C@H](C)[C@@H](C)S(=O)(=O)NC(=O)c2ccc3c(c2)N(C[C@@H]2CC[C@H]21)C[C@@]1(CCCc2cc(Cl)ccc21)CO3` (stereo in doubt) [Example 100487], the IC50 in assay [1] (setting [5]) stood at 0.436 nM; in assay [2] (setting [6]), 340 nM.
Consider `CCO[C@@]1(CN2CCN(CC)CC2)/C=C/C[C@H](C)[C@@H](C)S(=O)(=O)NC(=O)c2ccc3c(c2)N(C[C@@H]2CC[C@H]21)C[C@@]1(CCCc2cc(Cl)ccc21)CO3` [Example 112, (1S,3′R,6′R,7′S,8′E,11′S,12′R)-6-chloro-7′-ethoxy-7′-((4-ethyl-1-piperazinyl)methyl)-11′,12′-dimethyl-3,4-dihydro-2H,15′H-spiro[naphthalene-1,22′-[20]oxa[13]thia[1,14]diazatetracyclo [14.7.2.0~3,6~.0~19,24~]pentacosa[8,16,18,24]tetraen]-15′-one 13′,13′-dioxide], for which the IC50 in assay [1] (setting [3]) was found to be 0.617 nM; in assay [2] (setting [4]), 654 nM.
In the case of `CO[C@]1(CN2CCN(C(C)C)[C@H](C)C2)/C=C/C[C@H](C)[C@@H](C)S(=O)(=O)NC(=O)c2ccc3c(c2)N(C[C@@H]2CC[C@H]21)C[C@@]1(CCCc2cc(Cl)ccc21)CO3` [Example 8, (1 S,3′R,6′R,7′R,8′E, 11′S,12′R)-6-CHLORO-7′-METHOXY-11′,12′-DIMETHYL-7′-(((3R)-3-METHYL-4-(1-METHYLETHYL)-1-PIPERAZINYL)METHYL)-3,4-DIHYDRO-2H, 15′H-SPIRO [NAPHTHALENE-1,22′-[20]OXA[13]THIA[1,14]DIAZATETRACYCLO[14.7.2.0-3,6˜.0˜19,24˜]PENT ACOSA[8,16,18,24]TETRAEN]-15′-ONE 13′,13′-DIOXIDE], the values for the IC50 in assay [1] (setting [3]) and in assay [2] (setting [7]) were 0.053 nM and 25 nM, respectively.
Take `CNC(=O)C[C@@]1(O)CCC[C@H](C)[C@@H](C)S(=O)(=O)NC(=O)c2ccc3c(c2)N(C[C@@H]2CC[C@H]21)C[C@@]1(CCCc2cc(Cl)ccc21)CO3` (single isomer, unassigned) [Example 100103]: the IC50 in assay [1] (setting [5]) amounted to 0.325 nM; in assay [2] (setting [6]), 778 nM.
For `COCC#C[C@@]1(OC)/C=C/C[C@H](C)[C@@H](C)S(=O)(=O)NC(=O)c2ccc3c(c2)N(C[C@@H]2CC[C@H]21)C[C@@]1(CCCc2cc(Cl)ccc21)CO3` [Example 100343, (1S,3′R,6′R,7′R,8′E,11′S,12′R)-6-chloro-7′-methoxy-7′-(3-methoxy-1-propyn-1-yl)-11′,12′-dimethyl-3,4-dihydro-2H,15′H-spiro[naphthalene-1,22′-[20]oxa[13]thia[1,14]diazatetracyclo [14.7.2.0~3,6~.0~19,24~]pentacosa[8,16,18,24]tetraen]-15′-one 13′,13′-dioxide], the concentration for half-maximal inhibition (IC50) in assay [1] (setting [5]) was determined as 2.51 nM; in assay [2] (setting [6]), 617 nM.
In the same order, the values of `C[C@@H]1[C@@H](C)C/C=C/[C@@](O)(CCCO)[C@@H]2CC[C@H]2CN2C[C@@]3(CCCc4cc(Cl)ccc43)COc3ccc(cc32)C(=O)NS1(=O)=O` (stereo in doubt) [Example 100128] are 0.089 nM and 217 nM.
The corresponding values for `COC(=O)C[C@]1(O)/C=C/C[C@H](C)[C@@H](C)S(=O)(=O)NC(=O)c2ccc3c(c2)N(C[C@@H]2CC[C@H]21)C[C@@]1(CCCc2cc(Cl)ccc21)CO3` [Example 100288, methyl ((1S,3′R,6′R,7′S,8′E,11′S,12′R)-6-chloro-7′-hydroxy-11′,12′-dimethyl-13′,13′-dioxido-15′-oxo-3,4-dihydro-2H-spiro[naphthalene-1,22′-[20]oxa[13]thia[1,14]diazatetracyclo [14.7.2.0~3,6~.0~19,24~]pentacosa[8,16,18,24]tetraen]-7′-yl)acetate] are 0.103 nM and 89 nM.
In the same order, the values of `CO[C@@]1(c2nccn2C)/C=C/C[C@H](C)[C@@H](C)S(=O)(=O)NC(=O)c2ccc3c(c2)N(C[C@@H]2CC[C@H]21)C[C@@]1(CCCc2cc(Cl)ccc21)CO3` (single isomer, unassigned) [Example 100556] are 0.113 nM and 734 nM.
Regarding `CNC[C@]1(OC)/C=C/C[C@H](C)[C@@H](C)S(=O)(=O)NC(=O)c2ccc3c(c2)N(C[C@@H]2CC[C@H]21)C[C@@]1(CCCc2cc(Cl)ccc21)CO3` [Example 65, (1S,3′R,6′R,7′S,8′E,11′S,12′R)-6-chloro-7′-methoxy-11′,12′-dimethyl-7′-((methylamino)methyl)-3,4-dihydro-2H,15′H-spiro[naphthalene-1,22′-[20]oxa[13]thia[1,14]diazatetracyclo [14.7.2.0~3,6~.0~19,24~]pentacosa[8,16,18,24]tetraen]-15′-one 13′,13′-dioxide], the figures for the IC50 in assay [1] (setting [3]) and in assay [2] (setting [4]) were 0.451 nM and 1500 nM, respectively.

The values above are taken from US10821115B2, “Compounds that inhibit Mcl-1 protein” (priority 2017, dated 2020).
